We go through two compounds from patent publication US9023811B2, “Method for treating a cardiovascular disease, hypercholesterolemia or hypertension or improving serum cholesterol levels by administering broccoli with a high level of glusosinolates” (Plant Bioscience Limited, priority 2009, dated 2015).

Where two headings read alike, the source gives them in different places.

The target of one test is T1, bovine insulin (Bos taurus, UniProt P01317).
T1 construct: m/z 325.2 corresponds to Phe-SF, the N-terminal amino acid of insulin B chain; m/z 235.0 corresponds to Gly-SF, the N-terminal amino acid of insulin A chain; purchased Sigma-Aldrich
The experiment in a line: Incubation of peptides with isothiocyanates, LC-MS/MS. The class given is binding. The conditions noted are these: PBS pH 7.4 at 37° C., 0.5 to 24 hours.

Test [1] has as its target T2, recombinant human epidermal growth factor (EGF) (Homo sapiens, UniProt P01133).
T2 construct: addition of SF to the N-terminal asparagines residue (m/z 309) of EGF; purchased R&D Systems
The test is described as above. Format: binding. The following applies: PBS pH 7.4 at 37° C., 0.5 to 24 hours.
Protocol: (§1) Incubations of SF or IB with bovine insulin (P01308, Sigma-Aldrich), recombinant human epidermal growth factor (EGF, P01133, R&D Systems, http://www.rndsystems.com/) and recombinant human transforming growth factor beta 1 (TGFβ1, P01137, R&D Systems) were performed in sodium phosphate-buffered saline solution (pH 7.4) or human blood plasma at 37° C. for 0.5-24 h. Plasma was pre-treated by ultrafiltration to remove high molecular weight proteins (Microcon Ultracel YM-30 filter, MWCO 30,000). Samples were either analyzed directly by LC-MS/MS or by LC-MS/MS analysis of tryptic digests of gel electrophoresis bands.
(§2) The LC system used was a Shimadzu series LOAD VP (Shimadzu). The column was an ACE 300 C18, 150×2.1 mm (5 μm particle size) used at 40° C. Mobile phase A was 0.1% formic acid in water, mobile phase B, 0.1% formic acid in acetonitrile and the flow rate was 0.25 ml/min. A linear gradient was used from 25% B to 35% B over 0 to 5 min, then a further gradient from 35% B to 99% B over 6 min followed by 99% B for 4 min. The column was re-equilibrated for a total of 3 min. The injection volume was between 5-20 μl. […] The peak-width was set on Q1 and Q3 at 1.0 Th (measured at half height) for all MS and MS/MS experiments. […]

Test [2] has as its target T3, recombinant human transforming growth factor beta 1 (TGFβ1) (Homo sapiens, UniProt P01137).
T3 construct: TGFβ1 was robustly identified in bands of 25 kDa corresponding to the active dimer; The N-terminal peptide […] was identified; purchased R&D Systems
The description is as above. Format: binding. The following applies: PBS pH 7.4 at 37° C., 0.5 to 24 hours.
Protocol: as §1, §2

For test [3], the system named is TGFβ1/Smad mediated transcription.
Protocol: Cells were seeded into complete growth medium in a six-well tissue culture dish for 24 h, after which the medium was replaced with low serum medium (0.5% FCS) containing one of three treatments: (1) TGFβ1 (to achieve a final concentration of 2 ng ml^−1) in PBS buffer, (2) TGFβ1^+10 mM DTT in PBS buffer (3) TGFβ1^+2 μM SF in PBS buffer. To simulate SF pharmacokinetics, all test samples were incubated at 37° C. for 30 minutes prior to dialysis, performed in PBS buffer for 4 hours using Slide-A-Lyzer Dialysis Cassettes MWCO 3.5K (PIERCE). Dialysis reduced SF concentration to 34 nM. As additional controls, cells were treated with PBS without TGFβ1 and PBS with SF (34 nM). The luciferase activity was determined 16 h following treatment using the Luciferase Reporter Gene assay (Roche Applied Science) in a Perkin Elmer Wallac Victor 2 1420 multilabel counter plate reader (Perkin Elmer). Briefly, cells were washed twice with PBS and lysed in cell lysis buffer supplied with the assay. Chemiluminescence was immediately quantified following the addition of luciferase assay substrate. Luciferase values were normalized to protein concentration quantified using the BCA assay (Sigma-Aldrich). The experiment was repeated four times, with three replicates of each treatment per experiment. Statistical analysis was performed using 1-way ANOVA with the statistical software, R [24].
For test [4], the system named is EGF receptor phosphorylation in BPH cells. The following applies: EGF pre-incubated with ITC, compared to EGF alone.

T2 sequence (P01133 971-1023 limits assumed): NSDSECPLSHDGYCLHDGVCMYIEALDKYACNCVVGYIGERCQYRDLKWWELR
T1 sequence (P01317 25-54 limits assumed): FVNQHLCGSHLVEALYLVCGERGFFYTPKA
T1 sequence (P01317 85-105 limits assumed): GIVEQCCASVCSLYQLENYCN
T3 sequence (P01137 279-390 limits assumed): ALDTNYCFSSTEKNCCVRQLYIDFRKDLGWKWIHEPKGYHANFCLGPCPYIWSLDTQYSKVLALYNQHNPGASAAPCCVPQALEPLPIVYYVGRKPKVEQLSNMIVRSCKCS
Protocol for bovine insulin: as §1, §2
Protocol for pAKT in PC-3 cells: BPH-1 or PC-3 cells were cultured in 10 cm cell culture dishes or 6-well culture plates until they reached 80% confluency and were lifter using TE buffer (10 mM Tris/HCl, 1 mM EDTA, pH8). After 24 h treatment with SF cells were washed three times with cold PBS and treated with RIPA buffer for 2 min on ice, followed by centrifugation at 13 000 g at 4° C. for 10 min and the supernatant collected for western blotting. Protein was separated on NuPage 10% polyacrylamide gels by electrophoresis and transferred to nitrocellulose membranes. Membranes were probed with primary antibodies obtained from Cell Signalling© at a dilution of 1:1000: Phospho-Akt (Ser^473) Rabbit mAb (#4060 L) and AKT (pan) Rabbit rnAb (#4685). GAPDH was used as a loading control for all blots. Proteins were visualised with SuperSignal West Chemiluminescence kit.

With `C[S+]([O-])CCCN=C=S` (stereo not shown) [IB, iberin], the “conjugate of peptide and ITC (insulin)” value at bovine insulin was “formation of a covalently bound conjugate”. Besides, in test [1], the “conjugate of peptide and ITC (EGF)” value is reported as “formation of a covalently bound conjugate”. In test [2], the “conjugate of peptide and ITC (TGFβ1)” value is given as “formation of a covalently bound conjugate”.

With `C[S+]([O-])CCCCN=C=S` (stereo not shown) [SF, sulforaphane], the “conjugate of peptide and ITC (insulin)” value on bovine insulin is given as “formation of a covalently bound conjugate”. Also, the “Smad-mediated transcription (luciferase activity)” value in test [3] (TGFβ1 pre-incubated with SF (2 μM) for 30 minutes followed by dialysis, compared to TGFβ1 alone) was “increase in Smad-mediated transcription”; in test [3] (residual SF (34 nM) alone, without TGFβ1) it was “did not result in enhanced transcription”. For the same compound, the “amount of phosphorylated EGF receptor” value in test [4] is recorded as “reduces the amount of phosphorylated receptor”. In addition, the pAKT expression result in the test on pAKT in PC-3 cells (PC-3 cells + FCS, 2 μM SF, one hour) is reported as “suppresses pAKT”; in the test on pAKT in PC-3 cells (PC-3 cells + FCS, 10 μM SF) it was “variable response”; in the test on pAKT in PC-3 cells (PC-3 cells in culture medium without FCS) it was “no further inhibition”; in the test on pAKT in PC-3 cells (PC-3 cells, 0.5 μM SF (data not shown)), “suppression”. Moreover, the “conjugate of peptide and ITC (EGF)” value in test [1] is on record as “formation of a covalently bound conjugate”. The “conjugate of peptide and ITC (TGFβ1)” value in test [2] is recorded as “formation of a covalently bound conjugate”.
